These results are taken from US10597620B2, “Taste modifiers comprising a chlorogenic acid” (GIVAUDAN SA, priority 2001, dated 2020).

The test in a line: Flavorist panel evaluation of aged artificially sweetened beverage with added chlorogenic acid. It counts as in vivo. The settings on record: final concentration 0.003% w/v; compared to untreated beverage; six member panel of trained flavorists. Here is the method: An artificially sweetened beverage is prepared by mixing 1.4 g aspartame, 0.9 g acesulfame K, 6 ml sodium benzoate (25%^w/v in water), 1.3 ml phosphoric acid (85%^w/v), and 0.5 ml citric acid (50%^w/v in water). The volume of the mixture is adjusted to 1000 ml with water. The beverage mixture is aged for three weeks at 34° C.
A 2.8%^w/w solution of a commercially available synthetic chlorogenic acid (>95% pure (1,3,4,5-tetrahydroxy-cyclohexanecarboxylic acid 3-[3,4-dihydroxycinnamate]), Sigma Chemical Co., St. Louis, Mo.), in water, pH 5.6, is added to a portion of the aged beverage to a final concentration of 0.003%^w/v. The beverage containing chlorogenic acid is evaluated and compared to the untreated beverage by a six member panel of trained flavorists. The beverage containing the commercial chlorogenic acid is judged by the panel to display markedly less of the metallic, slightly bitter aftertaste found in the aged artificially sweetened beverage.
To another portion of the artificially sweetened beverage prepared as described in the first paragraph of Example 6, an aqueous solution of chlorogenic acid from the powdered extract of green coffee beans is added to a final concentration of 0.003%^w/v chlorogenic acid. This beverage is evaluated by the same flavorist panel as described in Example 6. […]

As for `O=C(C=Cc1ccc(O)c(O)c1)OC1CC(O)(C(=O)O)CC(O)C1O` (stereo not shown) [synthetic chlorogenic acid, 1,3,4,5-tetrahydroxy-cyclohexanecarboxylic acid 3-[3,4-dihydroxycinnamate]], the “metallic, slightly bitter aftertaste found in the aged artificially sweetened beverage” value is “markedly less”.
